Experimental data published in US20070027118A1 (priority 2005, published 2007).

Assays:
[1] = target: T1, 11β-hsd-1 enzyme (Homo sapiens, UniProt P28845); experiment: biochemical
Summary of the method: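 Enzyme (5 nM) pre-incubated ≥30 min at RT with inhibitor and 500 μM NADPH in triethanolamine buffer pH 8.0; reaction started with glucose-6-phosphate regenerating system and 200 nM 3H-cortisone, stopped with DMSO after 60 min. Product quantified by radio-HPLC; Kiapp from Morrison tight-binding equation.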

[2] = target: T1, 11β-hsd-1 enzyme; experiment: biochemical; settings: for inhibition / inhibition at 100 µM: read-out: % Inh @ 0.1 mM; for inhibition at 100 µM: Table 2, inhibitor 0.1 mM as printed; for inhibition at 0.1 µM: read-out: % Inh @ 0.1 μM
Summary of the method: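 Human 11β-HSD-1 (5 nM) pre-incubated ≥30 min with inhibitor and 500 μM NADPH in triethanolamine buffer pH 8.0 with NaCl, n-dodecyl β-D-maltoside and β-ME; reaction started with G6P/G6PDH/MgCl2 regenerating system and 200 nM 3H-cortisone, run 60 min, stopped with DMSO. 3H-cortisol and substrate separated by radio-HPLC; percent inhibition from peak areas.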

T1 sequence (P28845 whole entry, species assumed): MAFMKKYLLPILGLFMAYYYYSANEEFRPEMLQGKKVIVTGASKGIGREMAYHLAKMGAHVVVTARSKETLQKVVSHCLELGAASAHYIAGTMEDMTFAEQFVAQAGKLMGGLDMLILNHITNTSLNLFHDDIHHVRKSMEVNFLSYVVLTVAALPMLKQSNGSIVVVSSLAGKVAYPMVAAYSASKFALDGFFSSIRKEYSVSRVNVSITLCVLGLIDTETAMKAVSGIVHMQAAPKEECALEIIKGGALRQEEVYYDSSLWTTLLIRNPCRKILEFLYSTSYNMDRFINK

SMILES	Ki [1]	inhibition [2]	inhibition at 100 µM [2]	inhibition at 0.1 µM [2]
O=C1CN(S(=O)(=O)Nc2ccc3ccccc3n2)CCN1C1CCCC1 [Example 169, 4-cyclopentyl-3-oxo-N-quinolin-2-ylpiperazine-1-sulfonamide]	68 nM	84.6%		
CCc1cccc(NS(=O)(=O)N2CCCC(c3ccnc(N4CCCC4)n3)C2)n1 (stereo not shown) [Example 96, N-(6-ethylpyridin-2-yl)-3-(2-pyrrolidin-1-ylpyrimidin-4-yl)piperidine-1-sulfanamide]	61 nM	71.6%		
O=S(=O)(Nc1ccc2ccccc2n1)N1CCCCCC1 [Example 157, N-quinolin-2-ylazepane-1-sulfonamide]	32 nM		100%	
CCc1cccc(NS(=O)(=O)N2CCC(Cc3ccc(F)cc3)CC2)n1 [Example 124, N-(6-ethylpyridin-2-yl)-4-(4-fluorobenzyl)pipendine-1-sulfonamide]	7 nM		88.4%	
CCc1cccc(NS(=O)(=O)N2CCN(c3nc4ccc(Cl)cc4o3)CC2)n1 [Example 186, 4-(6-chloro-13-benzoxazol-2-yl)-N-(6-ethylpyridin-2-yl)piperazine-1-sulfonamide]	8.9 nM		100%	
CCc1cccc(NS(=O)(=O)N2CCC(Oc3ccccc3)CC2)n1 [Example 123, N-(6-ethylpyridin-2-yl)-4-phenoxypiperidine-1-sulfanamide]	22 nM	100%		
Cc1cccc(NS(=O)(=O)N2CCN(c3ccc(C(F)(F)F)cn3)CC2)n1 [Example 8]	2.1 nM			96.4%
CCc1cccc(NS(=O)(=O)N2CCC(c3ccccc3OC)CC2)n1 [Example 119, N-(6-ethylpyridin-2-yl)-4-(2-methoxyphenyl)pipendine-1-sulfonamide]	37 nM	93.1%		
O=S(=O)(Nc1ccc2ccccc2n1)N1CCN(c2ccc(C(F)(F)F)cn2)CC1 [Example 14]	4.8 nM			100%
COc1cccc(N2CCN(S(=O)(=O)Nc3cccc(C)n3)CC2)n1 [Example 136, 4-(6-methoxypyridin-2-yl)-N-(6-methylpyridin-2-yl)piperazine-1-sulfonamide]	6.5 nM	93.7%		
C[C@@H]1CN(S(=O)(=O)Nc2cccc(CO)n2)CCN1c1ccc(C#N)cn1 [Example 30]	> 1 nM			100%
O=S(=O)(Nc1ccc2ccccc2n1)N1CCN(c2ncccn2)CC1 [Example 154, 4-pyrimidin-2-yl-N-quinolin-2-ylpiperazine-1-sulfonamide]	5.1 nM	100%		
Cc1cccc(NS(=O)(=O)N2CCN(c3cccc(C)n3)CC2)n1 [Example 131, N4-bis(6-methylpyridin-2-yl)piperazine-1-sulfonamide]	29 nM	93.2%		
Cc1cccc(NS(=O)(=O)N2CCCN(c3ccc(C#N)cn3)CC2)n1 [Example 44]	34 nM			72%
CCc1cccc(NS(=O)(=O)N2CCC(CCc3ccnc(NCC4CC4)n3)CC2)n1 [Example 82, 4-(2-{2-[(cyclopropylmethyl)-amino]pyrimidin-4-yl}ethyl)-N-(6-ethylpyridin-2-yl)piperidine-1-sulfonamide]	11 nM	100%		
Cc1cccc(NS(=O)(=O)N2CCc3ccccc3CC2)n1 [Example 11]	2.8 nM			95.5%
O=S(=O)(Nc1ccc2ccccc2n1)N1CCCC(c2ccccc2)CC1 (stereo not shown) [Example 97, 4-phenyl-N-quinolin-2-ylazepane-1-sulfonamide]	6.3 nM	100%		
Cc1cc(N)nc(NS(=O)(=O)N2CCN(c3ccc(C#N)cn3)CC2)c1 [Example 20, N-(6-amino-4-methylpyridin-2-yl)-4-(5-cyanopyridin-2-yl)piperazine-1-sulfonamide]	2.5 nM			100%
Cc1ccc(C2(C)CN(S(=O)(=O)Nc3ccc4ccccc4n3)CCO2)cc1 (stereo not shown) [Example 87, 2-methyl-2-(4-methylphenyl)-N-quinolin-2-ylmorpholine-4-sulfonamide]	25 nM	85.2%		
CCc1cccc(NS(=O)(=O)N2CCc3nc(-c4ccccc4)nc(C(=O)NC)c3C2)n1 [Example 148, 6-{[(6-ethylpyridin-2-yl)amino]sulfonyl}-N-methyl-2-phenyl-5678-tetrahydro-pyrido[43-d]pyrimidine-4-carboxamide]	26 nM	83.9%		
CCc1cccc(NS(=O)(=O)N2CCCC(C)C2)n1 (stereo not shown) [Example 118, N-(6-ethylpyridin-2-yl)-3-methylpiperidine-1-sulfonamide]	59 nM	73.6%		
CCc1cccc(NS(=O)(=O)N2CCC(c3ccccc3F)CC2)n1 [Example 113, N-(6-ethylpyridin-2-yl)-4-(2-fluorophenyl)piperidine-1-sulfonamide]	16 nM	89.2%		
CCc1cccc(NS(=O)(=O)N2CCCC(c3ccccc3)CC2)n1 (stereo not shown) [Example 90, N-(6-ethylpyridin-2-yl)-4-phenylazepane-1-sulfonamide]	18 nM	90.9%		
CCc1cccc(NS(=O)(=O)N2CCN(c3nc4nc(C)ccc4o3)CC2)n1 [Example 149, N-(6-ethylpyridin-2-yl)-4-(5-methyl[13]oxazolo[45-b]pyridin-2-yl)piperazine-1-sulfonamide]	280 nM	78.2%		
O=S(=O)(Nc1cccc(CCO)n1)N1CCc2ccccc2CC1 [Example 16, N-[6-(2-hydroxyethyl)pyridin-2-yl]-1,2,4,5-tetrahydro-3H-3-benzazepine-3-sulfonamide]	2.4 nM			100%
CCc1cccc(NS(=O)(=O)N2CCC(Cc3cc(F)ccc3C)CC2)n1 [Example 102, N-(6-ethylpyridin-2-yl)-4-(5-fluoro-2-methylbenzyl)piperidine-1-sulfonamide]	5.4 nM		100%	
